Data reported in patent US12144840B2, “Method for treating or preventing benign prostatic hyperplasia” (priority 2017, dated 2024).
Values joined by “and” are separate entries in the source; they are usually repeats but may differ in a detail not shown here. Equal entries are not always repeated. Where two headings read alike, the source gives them in different places.

How the values were obtained:
[1] = test system: testosterone-induced benign prostatic hyperplasia; assay type: in vivo, male Wistar rats; details: BPH rats; for Ratio (b/a* 100): prostate weight/body weight
Procedure: (§1) After 6-week-old male Wistar rats (Samtako, Korea) were obtained and acclimated for one week, six animals constituted each test group when each animal weighed 340-350 g.
(§2) As for the test configuration, the animals were divided into groups without testicle removal and groups undergoing […] recovery after testicle removal, and each group was subcutaneously injected with 5 mg/kg testosterone to induce benign prostatic hyperplasia for weeks (BPH induced group). Test groups were constructed by oral administration of Aucklandiae Radix extracts and costunolide at different concentrations (mg/kg) once a day, seven times a week, for 8 weeks.
After the completion of the test, the rats of all the test groups were euthanized, and then prostate tissue and main organs were extracted, and weights and volumes thereof were measured using an electronic scale for animal weights and a caliper (mm^3) (Table 2).

[2] = test system: RAW 264.7 cells; assay: Nitric oxide (NO) change in LPS-activated macrophages (Griess reagent); assay type: cell-based; details: 200 ng LPS, various concentrations, 18 hours, vs LPS alone; dose-dependent (FIG. 1)
Procedure: (§3) RAW 264.7 cells, which were macrophages used in the present tests, were available from American Type Culture Collection (ATCC). These cells were cultured in CO2 incubator (Formascientific, Inc.) using DMEM containing 10% fetal bovine serum (FBS). The differentiation of cells was observed through microscopic observation, and then the cells were used in the tests.
To induce the activation of macrophages, RAW 264.7 cells were treated with 200 ng/ ? lipopolysaccharide (LPS) while simultaneously treated with various concentrations (μg/ ? ) of a 100% methanol extract of Aucklandiae Radix (expressed by MeOH 100%), a 30% ethanol extract of Aucklandiae Radix (expressed by EtOH 30%), and a 70% ethanol extract of Aucklandiae Radix (expressed by EtOH 70%), and costunolide, and then the cells were cultured in a 37° C., 5% CO2 incubator for 18 hours. After 18 hours, 100 ? of the supernatant was transferred to a new plate for each group, and 100 ? of a solution, in which Griess reagent A (2% sulfanilamide in 5% phosphoric acid) and Greiss reagent B (0.2% naphthylethylenediamine dihydrochloride) were mixed at a rate of 1:1, was added thereto. Thereafter, the absorbance was measured at 540 nm.

[3] = assay type: in vivo, male Wistar rats
Procedure: as §1
as §2, with “weeks. Positive control groups were used by oral administration of finasteride, which has been used as a medicine for benign prostatic hyperplasia.” for “weeks.”
For analysis of biochemical markers in serum, blood was obtained through the abdominal vein from rats of all the groups at necropsy. The blood was coagulated for about 30 minutes, and then centrifuged for 5 minutes at 10,000 rpm to separate serum. After serum separation, a biochemistry analyzer (AU480, Beckman Coulter, USA) was used to check liver function (AST, ALP), lipoprotein (total cholesterol (T-CHO)), HDL cholesterol (HDL-C), LDL cholesterol (LDL-C)), and kidney function ([…]) levels (Table 3).

[4] = test system: prostate tissue; assay: Prostate pathology biopsy (H&E) in BPH model rats; assay type: in vivo, male Wistar rats; details: oral once a day, 8 weeks
Procedure: as §1
as §2, with “weeks. Positive control groups were used by oral administration of finasteride, which has been used as a medicine for benign prostatic hyperplasia.” for “weeks.”
After the completion of the test, the prostate tissue extracted from each group was fixed with 10% neutral formalin and stored. The tissue of each group was processed into paraffin blocks, and slides for microscopic inspection of tissue were manufactured and stained with hematoxylin & eosin (H&E). The microscopic inspection of tissue was conducted through a microscope (Olympus, Tokyo, Japan) at a magnification of X200.

[5] = test system: RAW 264.7 cells; assay: Inflammatory cytokine (IL-1β, IL-6, TNF-α) levels by ELISA in LPS-activated macrophages; assay type: cell-based; details: 200 ng LPS, various concentrations, 18 hours, vs cells treated with only LPS (FIG. 2)
Procedure: as §3
RAW 264.7 cells were treated with 200 ng/ ? LPS while simultaneously treated with various concentrations (μg/ ? ) of Aucklandiae Radix extracts (EtOH 30% and 70%) and costunolide, and then the cells were cultured in a 37° C., 5% CO2 incubator for 18 hours. After 18 hours, ELISA analysis kits (eBioScience 88-7013, 88-7064 USA, BD 555268 USA) were used to check the levels of the inflammatory cytokines IL-1β, IL-6, and TNF-α in the supernatant of each group.

[6] = positive control group, oral, dose not given
[7] = oral 0.075 mg/kg once a day, 8 weeks

Structure (SMILES): CC(C)(C)NC(=O)[C@H]1CC[C@H]2[C@@H]3CC[C@H]4NC(=O)C=C[C@]4(C)[C@H]3CC[C@]12C [Fina, finasteride]
- Body Weight (a) [1, 6]: 379 g and 415 g
- Prostate Weight (b) [1, 6]: 1.23 g and 1.42 g
- Prostate volume [1, 6]: 2,322 mm^3 and 4,255 mm^3
- Speen weight [1, 6]: 0.60 g and 0.70 g
- Ratio (b/a* 100) [1, 6]: 0.29 and 0.34

Structure (SMILES): C=C1C(=O)O[C@@H]2/C=C(\C)CC/C=C(\C)CC[C@@H]12 [costunolide]
- prostate weights and volumes ([1]; costunolide administration groups, printed as 0.075 μg/, compared with finasteride administration groups (FIG. 3)): significant reduction effect
- Body Weight (a) [1, 7]: 433 g
- Liver weight [1, 7]: 10.72 g
- Prostate Weight (b) [1, 7]: 1.40 g
- Prostate volume [1, 7]: 4,126 mm^3
- Speen weight [1, 7]: 0.62 g
- Ratio (b/a* 100) [1, 7]: 0.32
- amount of NO [2]: significantly decreased
- serum liver function, lipoprotein and kidney function levels (hepatoxicity and kidney toxicity) ([3]; BPH rats, oral once a day, 8 weeks, all administered groups): no significant changes
- ALP ([3]; rat, in vivo, po, 0.075 mg/kg): 61.17 U/L
- AST ([3]; rat, in vivo, po, 0.075 mg/kg): 78.33 U/L
- CRE ([3]; rat, in vivo, po, 0.075 mg/kg): 0.27 mg/dL
- HDL ([3]; rat, in vivo, po, 0.075 mg/kg): 51.50 mg/dL
- LDL ([3]; rat, in vivo, po, 0.075 mg/kg): 13.17 mg/dL
- T-CHO ([3]; rat, in vivo, po, 0.075 mg/kg): 79.67 mg/dL
- endothelial thicknesses of prostate tissue (H&E, X200) ([4]; compared with the benign prostatic hyperplasia induced group (FIGS. 4 and 5)): significantly reduced
- alveolar glands of prostate tissue (H&E, X200) ([4]; similar to the normal control group (FIGS. 4 and 5)): maintained in a round shape without atrophy
- secretion levels of the inflammatory cytokines (IL-1β, IL-6, TNF-α) [5]: decreases
